Test results as given in paper PMC12615753, “Glutathione as a taste modulator: molecular mechanisms of interaction with umami and sweet taste receptors” (Food Chemistry: Molecular Sciences, 2025).

Columns and labels:
[1] = biological target: T1, hTAS1R2/rTAS1R3 (UniProt Q8TE23+Q923K1); experiment: Calcium assay in transfected HEK293T/17 cells, sweet taste receptor; assay type: cell-based, human, rat
T1 construct: The cDNA coding region of rTAS1R3 was synthesized with optimized-codon usage for human expression; expressed in transfected cells
T1 sequence (Q8TE23 20-839): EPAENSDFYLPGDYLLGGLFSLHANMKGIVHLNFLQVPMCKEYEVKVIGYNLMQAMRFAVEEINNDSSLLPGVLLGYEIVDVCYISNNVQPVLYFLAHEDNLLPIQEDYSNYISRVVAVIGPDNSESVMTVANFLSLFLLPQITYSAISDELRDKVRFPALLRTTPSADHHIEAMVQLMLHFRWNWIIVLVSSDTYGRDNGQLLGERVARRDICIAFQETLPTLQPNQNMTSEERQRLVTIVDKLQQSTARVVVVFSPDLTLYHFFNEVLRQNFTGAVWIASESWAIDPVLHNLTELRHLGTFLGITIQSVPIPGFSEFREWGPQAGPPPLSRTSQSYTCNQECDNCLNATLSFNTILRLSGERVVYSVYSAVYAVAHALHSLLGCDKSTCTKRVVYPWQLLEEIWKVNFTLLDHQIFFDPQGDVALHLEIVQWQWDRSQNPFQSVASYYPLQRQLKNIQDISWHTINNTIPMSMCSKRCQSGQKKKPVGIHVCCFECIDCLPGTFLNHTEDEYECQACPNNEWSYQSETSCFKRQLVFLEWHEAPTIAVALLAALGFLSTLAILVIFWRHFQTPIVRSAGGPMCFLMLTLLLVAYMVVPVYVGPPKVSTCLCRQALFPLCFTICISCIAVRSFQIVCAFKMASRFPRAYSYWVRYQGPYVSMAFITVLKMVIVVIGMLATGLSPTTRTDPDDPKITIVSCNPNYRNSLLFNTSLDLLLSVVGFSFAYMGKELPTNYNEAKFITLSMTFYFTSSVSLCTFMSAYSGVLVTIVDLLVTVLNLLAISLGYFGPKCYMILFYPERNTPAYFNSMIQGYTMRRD
T1 sequence (Q923K1 21-858): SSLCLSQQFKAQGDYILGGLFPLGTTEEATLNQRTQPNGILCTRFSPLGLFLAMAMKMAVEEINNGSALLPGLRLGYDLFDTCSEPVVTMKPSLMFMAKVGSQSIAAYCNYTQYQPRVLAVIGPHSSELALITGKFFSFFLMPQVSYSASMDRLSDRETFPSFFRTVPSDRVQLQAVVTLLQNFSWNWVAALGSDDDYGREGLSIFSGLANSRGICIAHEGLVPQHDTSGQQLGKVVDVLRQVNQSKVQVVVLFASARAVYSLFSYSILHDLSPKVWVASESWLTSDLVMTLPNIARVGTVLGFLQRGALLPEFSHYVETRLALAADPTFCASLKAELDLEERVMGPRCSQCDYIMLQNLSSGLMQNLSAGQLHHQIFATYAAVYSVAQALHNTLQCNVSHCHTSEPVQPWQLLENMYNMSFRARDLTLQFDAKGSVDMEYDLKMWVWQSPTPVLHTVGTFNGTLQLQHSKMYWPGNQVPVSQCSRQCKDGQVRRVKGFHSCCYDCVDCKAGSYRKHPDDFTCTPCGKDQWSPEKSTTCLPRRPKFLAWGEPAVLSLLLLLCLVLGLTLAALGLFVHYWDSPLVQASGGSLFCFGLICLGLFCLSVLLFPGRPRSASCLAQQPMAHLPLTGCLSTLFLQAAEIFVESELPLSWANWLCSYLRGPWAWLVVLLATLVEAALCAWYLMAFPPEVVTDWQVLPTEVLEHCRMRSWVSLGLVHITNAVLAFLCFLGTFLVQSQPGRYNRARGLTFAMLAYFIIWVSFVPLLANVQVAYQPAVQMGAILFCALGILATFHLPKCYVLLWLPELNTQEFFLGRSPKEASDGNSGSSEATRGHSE
Protocol: HEK293T/17 cells (ATCC CRL-11268) were seeded into clear bottom black 96-well plates coated with poly-D-lysine at a density of 32500 cells/well in 100 μL of DMEM containing 4.5 g/L glucose and supplemented with penicillin/streptomycin, 2 mM GlutaMAX and 10 % dialyzed fetal bovine serum. The plates were incubated for 24 h at 37 °C and 7.3 % CO2 in a humidified atmosphere. After incubation, using Fugene® 4 K (0.46 μL/well, Promega, Illkirch, France), the cells were transiently transfected with pcDNA3-hTAS1R1-WT (60 ng/well) or TAS1R1 mutants, pcDNA4-rTAS1R3 (60 ng/well), pcDNA3-Gα15i2 (10 ng/well), and pGP-CMV-GCaMP6s (Addgene #40753; 10 ng/well) as a genetically encoded calcium indicator. Twenty-four hours after transfection, the HEK293T/17 cells were rinsed with 100 μL of C1 buffer (130 mM NaCl, 5 mM KCl, 10 mM HEPES, 2 mM CaCl2, and 5 mM sodium pyruvate, pH 7.4). For each molecule tested, a semi-logarithmic concentration range was created consisting of seven increasing concentrations and a negative control (zero dose) made of buffer C1. Binary mixtures with different molecules were also made to study potential synergy. In this case, the concentration range was tested in C1 buffer containing the other molecules to be tested. The concentration ranges varied depending on the molecule, its solubility, and its effectiveness in activating the receptor. All the solutions were made on the day of the test to prevent any oxidation of the compounds. If needed, the pH of each solution was adjusted by to pH 7.4 by adding NaOH. After 20 s of basal fluorescence calcium measurement, the cells were stimulated via automatic injection of a range of compounds in eight wells, and the signal emission was recorded for an additional 70 s, via a FlexStation 3® fluorometric microplate reader (Molecular Devices, San Jose, CA, USA). As a control, molecules were also tested on mock-transfected cells with the empty vector. The emitted fluorescence was measured at a wavelength of 510 nm after excitation at 488 nm. Each measurement was performed in duplicate on the same plate, and the experiments were carried out at least four times. Kinetic data were acquired via SoftMax Pro 5.4.6 software (Molecular Devices). For each well, the decrease in the raw fluorescence as the relative fluorescence changed was calculated as ΔF/F0. Replicates were averaged for the wells subjected to the same stimuli, the background signal was subtracted, and the fluorescence changes in mock-transfected cells were subtracted. The half-maximal effective concentration (EC50) and maximal signal amplitude (max ∆F/F0) were calculated via non-linear regression of the sigmoidal function four-parameter logistic equation [f(x) = min + (max − min)/(1 + (x/EC50)^nH)] via SigmaPlot 15.0 software (Grafiti LLC, Palo Alto, CA, USA). […]

[2] = biological target: T2, hTAS1R2/hTAS1R3(r570–858) (Homo sapiens, UniProt Q7RTX0+Q8TE23, A579V/A607F/A718V/A733V/A735I/A808T/C675Y/C757R/D670N/F730L/G674S/G822E/H593Y/H712Q/L571S/L639M/L789Y/L798I/L800F/L816V/M689T/M713V/M818L/P605S/P630S/P826Q/Q627R/Q820L/R594W/R632S/R671W/R752Q/R790Q/R813K/R819W/S577C/S629R/S640A/S673C/T697A/T724M/T739V/T774I/V583T/V612I/V617F/V693A/V701M/V720E/V788A/V802A); experiment: Calcium assay, chimeric TAS1R3 co-expressed with hTAS1R2; assay type: cell-based, rat
T2 construct: hTAS1R3(r570–858) consists of the N-terminal extracellular domain of hTAS1R3 and the TMD of rTAS1R3; TMD of rTAS1R3 (r570–858); expressed in transfected cells
Excerpt: Chimeric Gα proteins, such as Gα16Gust44, Gα16Gi3 or Gα15i2, are widely used in the functional expression of TAS1R receptors ([Backes et al., 2015]; [Suess et al., 2015]; [Toda et al., 2021], [Toda et al., 2013], [Toda et al., 2018]; [Zhang et al., 2008]). Chimeric Gα15i2 (([Toda et al., 2013]), Supplementary data) was generated by replacing the last five residues of the C-terminal tail of rat Gα15i2 (EINLL) (UniProt number G3V6N8; https://www.uniprot.org/uniprot/) with the counterpart sequence from human GNAI2 (DCGLF) (UniProt number P04899-1) and cloning into the pcDNA3.1/Hygro vector (Invitrogen, Thermo Fisher Scientific, Illkirch, France) between the HindIII and NotI restriction sites, resulting in the plasmid pcDNA3.1-Gα15i2. Chimeric Gα16Gust44 construct have already been reported ([Raliou et al., 2011]). Briefly, Gα16Gust44 was generated by replacing the C-terminal of Gα16 with the C-terminal 44 residues of gustducin. As previously described, hTAS1R1 was amplified from human fungiform papillae cDNA and cloned and inserted into pcDNA3 (Invitrogen), generating pcDNA3-TAS1R1-WT (wild-type) ([Raliou et al., 2011]). […]

T2 sequence (Q7RTX0 with tags, fused parts or gaps with the stated changes limits assumed, one chain of several): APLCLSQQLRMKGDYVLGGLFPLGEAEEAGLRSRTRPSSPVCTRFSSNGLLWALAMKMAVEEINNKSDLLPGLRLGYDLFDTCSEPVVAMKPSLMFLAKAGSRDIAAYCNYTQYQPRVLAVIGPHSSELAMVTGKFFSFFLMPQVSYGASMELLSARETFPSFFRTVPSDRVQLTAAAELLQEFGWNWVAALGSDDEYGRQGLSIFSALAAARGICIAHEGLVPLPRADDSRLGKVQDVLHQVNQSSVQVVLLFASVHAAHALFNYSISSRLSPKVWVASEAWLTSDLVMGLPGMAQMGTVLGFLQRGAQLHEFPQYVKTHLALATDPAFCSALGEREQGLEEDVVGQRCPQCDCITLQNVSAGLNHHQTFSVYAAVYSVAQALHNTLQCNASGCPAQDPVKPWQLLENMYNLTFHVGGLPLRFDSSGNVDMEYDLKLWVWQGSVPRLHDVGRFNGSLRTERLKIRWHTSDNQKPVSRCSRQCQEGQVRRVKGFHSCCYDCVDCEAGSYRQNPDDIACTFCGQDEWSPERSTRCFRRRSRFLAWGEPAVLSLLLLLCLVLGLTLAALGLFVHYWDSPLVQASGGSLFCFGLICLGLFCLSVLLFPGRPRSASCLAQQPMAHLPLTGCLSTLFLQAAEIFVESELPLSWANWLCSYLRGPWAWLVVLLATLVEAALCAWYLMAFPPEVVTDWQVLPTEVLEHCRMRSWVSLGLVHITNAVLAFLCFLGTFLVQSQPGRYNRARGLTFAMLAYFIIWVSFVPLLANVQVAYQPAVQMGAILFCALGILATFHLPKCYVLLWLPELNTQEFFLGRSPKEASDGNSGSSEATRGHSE

| Structure (SMILES) | EC50 ([1]; WT, sucralose alone, Fig. 4A) [µM] | EC50 ([1]; agonist alone, Fig. 2) [µM] | EC50 ([2]; sucralose alone, Fig. 3B) [µM] | fold decrease in the EC50 value of sucralose ([1]; in the presence of 10 mM GSH) [fold] | effect of GSH on the response to sucralose [2] |
| --- | --- | --- | --- | --- | --- |
| OC[C@H]1O[C@H](O[C@]2(CCl)O[C@H](CCl)[C@@H](O)[C@@H]2O)[C@H](O)[C@@H](O)[C@H]1Cl [sucralose, reference compound] | 325 ± 140 | 251 ± 128 | 67 ± 1 |  |  |
| N[C@@H](CCC(=O)N[C@@H](CS)C(=O)NCC(=O)O)C(=O)O [GSH, γ-L-glutamyl-L-cysteinyl-glycine] |  | 4060 ± 2510 |  | 3 | unaffected |
